From ChEMBL document CHEMBL1201862, “PubChem BioAssay data set” (2004) come the findings set out here.

A short description of assay [1]: P. falciparum Dd2 growth inhibitors, dose response, SYBR Green, dry powder samples, set 9 (AID 1159568). The assay is classed as functional, cell-based.
The nature of assay [2]: P. falciparum ATP4 D1247Y mutant growth inhibitors, dose response, NITD609-resistant line, SYBR Green, dry powder (AID 1159571).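 Also: parasites synchronized at ring stage by sorbitol before testing.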 The format is functional, cell-based.
A short description of assay [3]: P. falciparum Dd2 growth inhibitors, dose response, SYBR Green, dry powder samples (AID 1159566).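 Also: potency for growth inhibition with lower SYBR green DNA signal.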 The assay is classed as functional, cell-based.
Assay [4] in a line: P. falciparum Dd2 growth inhibitors, dose response, SYBR Green, cherry-picked samples (AID 1159567). The assay is classed as functional, cell-based.
Assay [5] is described as follows: P. falciparum 3D7-ScDHODH growth inhibitors, dose response, SYBR Green, dry powder samples (AID 1159570).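 Also: parasite growth measured after 72 hours of compound exposure.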 The format is functional, cell-based.
Assay [6] can be described thus: P. falciparum Dd2 blood-stage growth inhibition, dose response, SYBR Green fluorescence, erythrocytes, dry powder, set 2 (AID 1159574). The assay is classed as functional, cell-based.
Assay [7] is described as follows: Luminescence Cell-Based Dose Confirmation HTS to Identify Inhibitors of Platelet Dense Granule Release. [Related pubchem assays: 1663 (Primary HTS), 1678 (Summary of Project)]. The assay is classed as functional.
Assay [8] addresses E3 ubiquitin-protein ligase Mdm2 (Homo sapiens, UniProt Q00987). Nature of the assay: enhancers of MDM2-luciferase reporter signal, concentration-effect titration, project on inhibitors of MDM2 ubiquitin ligase, cellular assay, luminescent readout, 384-well plate format (AID 1394).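 Also: MDM2 E3 inhibitors raise luminescence so EC50 is for signal enhancement.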 The format is functional. On the technique in general: A reporter such as luciferase makes a cellular process visible.

Assay [9] deals with Luciferin 4-monooxygenase (Photinus pyralis, UniProt P08659). Nature of the assay: firefly luciferase enzyme inhibitors, dose response, biochemical, luminescence (AID 1891).
Assay [10] concerns the target Glyceraldehyde-3-phosphate dehydrogenase (Homo sapiens, UniProt P04406).
Assay [11] concerns the target T1, Bcl-2-related protein A1 (Mus musculus, UniProt Q07440).
T1 sequence (Q07440 whole entry): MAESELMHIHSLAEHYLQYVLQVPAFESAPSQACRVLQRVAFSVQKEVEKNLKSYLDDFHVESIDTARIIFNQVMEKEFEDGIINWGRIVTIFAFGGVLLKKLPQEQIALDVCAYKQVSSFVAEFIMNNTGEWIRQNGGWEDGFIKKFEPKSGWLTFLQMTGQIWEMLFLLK
Briefly: Bfl-1 inhibitors blocking BH3 peptide binding, confirmation, biochemical, TR-FRET, mouse Bfl-1 (AID 621).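 Also: TR-FRET binding of GST-Bfl-1 to FITC-labelled Bid peptide via terbium antibody.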

Assay [12] deals with T1, Bcl-2-related protein A1. Briefly: Bfl-1 binding inhibitors, SAR follow-up, biochemical, fluorescence polarization (AID 1070). (Polarisation of emitted light reports the rotation of a fluorescent probe.)
For assay [13], the target named is Sphingosine 1-phosphate receptor 2 (Homo sapiens, UniProt O95136). Nature of the assay: Dose Response Cell Based Assay for Antagonists of the S1P2 Receptor. [Related pubchem assays: 856, 736 ]. The assay is classed as functional.
Assay [14] can be described thus: Luminescence-based cell-based high throughput dose response assay to identify activators of the DAF-12 from the parasite S. stercoralis (ssDAF-12). The format is functional.
Assay [15] addresses T2, Oxysterols receptor LXR-beta (Homo sapiens, UniProt P55055).
T2 sequence (P55055 whole entry): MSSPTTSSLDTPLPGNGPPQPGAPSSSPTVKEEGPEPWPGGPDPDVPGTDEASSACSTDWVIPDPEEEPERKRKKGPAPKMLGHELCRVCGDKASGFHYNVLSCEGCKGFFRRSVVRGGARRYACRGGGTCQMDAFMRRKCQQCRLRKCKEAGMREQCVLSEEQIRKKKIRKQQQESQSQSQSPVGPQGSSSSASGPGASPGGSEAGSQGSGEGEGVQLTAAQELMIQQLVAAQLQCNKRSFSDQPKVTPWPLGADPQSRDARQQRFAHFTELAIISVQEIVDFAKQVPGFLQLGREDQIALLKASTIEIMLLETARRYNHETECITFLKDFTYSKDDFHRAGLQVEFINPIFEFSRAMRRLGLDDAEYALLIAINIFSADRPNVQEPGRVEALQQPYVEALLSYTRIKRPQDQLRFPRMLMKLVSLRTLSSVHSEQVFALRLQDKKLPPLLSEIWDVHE
Nature of the assay: LXR agonists, Gal4 luciferase reporter, dose response, counter-screen for ssDAF-12 agonist project, cell-based, luminescence, HEK293, S. stercoralis campaign (AID 720737). The assay is classed as functional. As to conditions: read-out: IC50 (the source's name).

The target in another assay is Phospholipase D2 (Homo sapiens, UniProt O14939). Briefly: PLD2 Cellular Concentration Response Study. The assay is classed as functional.
Another assay deals with Phospholipase D1 (Homo sapiens, UniProt Q13393). Briefly: PLD1 Cellular Concentration Response Study. The assay is classed as functional.
A further assay relates to H4. Briefly: Luminescence Cell-Based Dose Response HTS to Identify Activators of 5'UTR Stem-Loop Driven Prion Protein mRNA Translation in H4 Neuroglioblastoma Cells. [Related pubchem assays: 1829 (Project Summary), 1814 (Primary HTS)]. The assay is classed as functional. As to conditions: Homo sapiens.
Assay [16] can be described thus: Luminescence Cell-Based Dose Response to Identify Activators of Luciferase Translation or Activity in H4-C Neuroglioblastoma Cells. [Related pubchem assays: 1829 (Project Summary), 1814 (Primary HTS)]. The format is functional.
Assay [17] can be described thus: Luminescence Cell-Based Dose Response HTS to Identify Activators of Luciferase Translation or Activity in H4 […] Cells. [Related pubchem assays: 1829 (Project Summary), 1814 (Primary HTS)]. The assay is classed as functional.
Assay [18] is described as follows: Luminescence Cell-Based Dose Response to Identify Activators of 5'UTR Stem-Loop Driven Prion Protein mRNA Translation in H4-C Neuroglioblastoma Cells. [Related pubchem assays: 1829 (Project Summary), 1814 (Primary HTS)]. The format is functional.
Assay [19] in a line: Luminescence Cell-Based Dose Confirmation HTS to Identify Activators of 5'UTR Stem-Loop Driven Alpha-Synuclein mRNA Translation in H4 Neuroglioblastoma Cells. [Related pubchem assays: 1829 (Project Summary), 1814 (Primary HTS)]. The format is functional.
Assay [20] can be described thus: Luminescence Cell-Based Dose Confirmation to Identify Activators of 5'UTR Stem-Loop Driven Alpha-Synuclein mRNA Translation in H4 Neuroglioblastoma Cells. [Related pubchem assays: 1829 (Project Summary), 1814 (Primary HTS)]. The format is functional.
For assay [21], the target named is Aryl hydrocarbon receptor (Homo sapiens, UniProt P35869). Briefly: Luminescence-based cell-based high throughput dose response assay for activators of the Aryl Hydrocarbon Receptor (AHR). [Related pubchem assays: 2796 (Primary screen (AHR activators in singlicate)), 2845 (Confirmation screen (AHR activators in triplicate)), 434939 (Counterscreen (PXR activators in triplicate)), 2804 (Summary (AHR activators))]. The assay is classed as ADME. (The purpose of a counterscreen is to sort out artefacts and off-target activity.)

Assay [22] is described as follows: Luminescence-based dose response cell-based high throughput screening assay for cytotoxic compounds using the IEC-6 intestinal epithelial cell line. [Related pubchem assays: 1858 (Summary AID.), 1825 (Counterscreen.), 1907 (Confirmation screen.)]. The format is functional.
The nature of assay [23]: cytotoxicity toward DRD oncogenic fibroblasts, dose response, cell-based, non-viral oncogenic, luminescence (AID 1934). The assay is classed as functional. Conditions: Homo sapiens.
The next assay concerns the target Paired box protein Pax-8 (Homo sapiens, UniProt Q06710). Nature of the assay: inhibitors of PAX8-driven TPO luciferase reporter, dose response, RMG-I cells, cherry-pick (AID 687027).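 Also: luciferase reporter driven by Pax8 target thyroperoxidase promoter measured by SteadyGlo luminescence.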 The format is functional, cell-based.
Assay [24] concerns BJ. Nature of the assay: cytotoxicity toward Ras-transformed BJeLR fibroblasts, dose response, cell-based, alamar blue fluorescence, cherrypicked samples (AID 2631).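 Also: confirmatory dose-response assay in RAS-dependent BJ fibroblasts engineered with TERT, LT and ST, with cytotoxicity read by fluorescence.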 The format is functional. Conditions: Homo sapiens.
The test system of assay [25] is BJ. Briefly: cytotoxicity toward BJ-TERT fibroblasts, dose response, cell-based, RAS-independent, luminescence (AID 1933). The format is functional. As to conditions: Homo sapiens.
A short description of assay [26]: cytotoxicity in HEK-293T cells, dose response, cytotoxicity control for TCR NF-kB inhibitor project, luminescence, T-cell screen hits (AID 489026).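 Also: cells exposed to compound about 14 hours before the viability readout.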 The assay is classed as functional, cell-based.
In assay [27] the test system is BJ. Nature of the assay: cells. As to conditions: Homo sapiens. The format is functional, cell-based.
The target of assay [28] is Mitogen-activated protein kinase 10 (Homo sapiens, UniProt P53779). Briefly: Dose response biochemical screening assay for inhibitors of c-Jun N-Terminal Kinase 3 (JNK3). [Related pubchem assays: 746 ].
Assay [29] is described as follows: Glucagon-like peptide 1 release potency, NCI-H716 cell line, dose-response, half-maximal inhibitory concentration (AID 1117344). The assay is classed as functional, cell-based.
Assay [30] in a line: Dose-response inhibition of insulin secretion in a rat insulinoma line at 5 mM glucose (AID 1117331). The assay is classed as functional, cell-based. Conditions: INS-1E.
A short description of assay [31]: Luminescence Cell-Based Dose Retest to Confirm Inhibitors of Cancer Stem Cells. [Related pubchem assays (depositor defined):AID2717, AID2721]. The format is functional, Homo sapiens. Conditions: Homo sapiens.
Assay [32] in a line: half-maximal inhibitory concentration for glucagon-like peptide-1 release, STC-1 cell line, dose-response (AID 1117345). The assay is classed as functional, cell-based.

The source made the active and inactive calls.

Sphingosine 1-phosphate receptor 2, sequence (O95136 whole entry): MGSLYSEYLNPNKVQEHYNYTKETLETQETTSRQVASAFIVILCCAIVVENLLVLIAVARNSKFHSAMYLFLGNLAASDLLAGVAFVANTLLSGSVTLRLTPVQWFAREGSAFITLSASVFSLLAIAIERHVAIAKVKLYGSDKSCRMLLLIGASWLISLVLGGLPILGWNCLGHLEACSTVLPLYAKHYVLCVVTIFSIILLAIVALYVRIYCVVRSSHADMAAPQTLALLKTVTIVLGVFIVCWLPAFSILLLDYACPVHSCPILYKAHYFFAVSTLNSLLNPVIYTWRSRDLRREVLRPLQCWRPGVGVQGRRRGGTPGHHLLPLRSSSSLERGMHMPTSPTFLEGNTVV
Luciferin 4-monooxygenase, sequence (P08659 whole entry): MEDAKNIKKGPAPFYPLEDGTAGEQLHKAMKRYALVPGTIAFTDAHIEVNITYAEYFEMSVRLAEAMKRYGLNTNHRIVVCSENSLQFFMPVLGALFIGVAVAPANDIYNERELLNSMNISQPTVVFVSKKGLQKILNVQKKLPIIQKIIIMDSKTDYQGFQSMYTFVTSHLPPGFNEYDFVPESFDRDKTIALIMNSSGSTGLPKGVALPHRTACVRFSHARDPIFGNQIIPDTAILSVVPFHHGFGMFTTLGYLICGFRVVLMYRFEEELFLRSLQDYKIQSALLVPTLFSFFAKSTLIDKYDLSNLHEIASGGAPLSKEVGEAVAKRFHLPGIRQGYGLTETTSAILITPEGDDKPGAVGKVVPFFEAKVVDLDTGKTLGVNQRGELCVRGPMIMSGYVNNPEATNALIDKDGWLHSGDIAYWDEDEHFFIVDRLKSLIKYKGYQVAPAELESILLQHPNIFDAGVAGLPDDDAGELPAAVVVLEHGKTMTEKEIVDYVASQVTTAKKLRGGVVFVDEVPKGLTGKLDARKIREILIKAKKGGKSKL
Aryl hydrocarbon receptor, sequence (P35869 whole entry): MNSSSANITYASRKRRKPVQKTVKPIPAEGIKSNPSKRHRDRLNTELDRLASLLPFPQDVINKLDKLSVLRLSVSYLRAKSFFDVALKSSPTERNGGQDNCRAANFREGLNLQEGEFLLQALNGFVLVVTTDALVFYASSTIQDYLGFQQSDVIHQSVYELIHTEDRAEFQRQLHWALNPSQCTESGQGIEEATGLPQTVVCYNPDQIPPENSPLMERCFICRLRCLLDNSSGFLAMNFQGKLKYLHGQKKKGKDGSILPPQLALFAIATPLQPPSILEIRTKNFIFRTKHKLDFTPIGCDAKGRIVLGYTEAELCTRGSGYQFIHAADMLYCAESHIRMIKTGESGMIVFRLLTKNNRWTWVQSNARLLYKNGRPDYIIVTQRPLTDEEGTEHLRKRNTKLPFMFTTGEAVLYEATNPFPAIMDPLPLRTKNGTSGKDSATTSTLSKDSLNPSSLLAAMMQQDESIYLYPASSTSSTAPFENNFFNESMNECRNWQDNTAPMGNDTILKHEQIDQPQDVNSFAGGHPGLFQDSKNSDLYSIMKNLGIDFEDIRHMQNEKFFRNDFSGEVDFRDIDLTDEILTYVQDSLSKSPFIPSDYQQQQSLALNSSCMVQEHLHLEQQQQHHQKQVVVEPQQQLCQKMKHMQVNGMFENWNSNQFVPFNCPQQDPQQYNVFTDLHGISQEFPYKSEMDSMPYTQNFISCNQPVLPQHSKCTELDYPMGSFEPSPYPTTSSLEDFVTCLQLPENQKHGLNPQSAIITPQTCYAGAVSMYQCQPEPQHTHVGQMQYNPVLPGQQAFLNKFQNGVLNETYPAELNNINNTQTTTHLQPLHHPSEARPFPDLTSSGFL
Phospholipase D2, sequence (O14939 whole entry): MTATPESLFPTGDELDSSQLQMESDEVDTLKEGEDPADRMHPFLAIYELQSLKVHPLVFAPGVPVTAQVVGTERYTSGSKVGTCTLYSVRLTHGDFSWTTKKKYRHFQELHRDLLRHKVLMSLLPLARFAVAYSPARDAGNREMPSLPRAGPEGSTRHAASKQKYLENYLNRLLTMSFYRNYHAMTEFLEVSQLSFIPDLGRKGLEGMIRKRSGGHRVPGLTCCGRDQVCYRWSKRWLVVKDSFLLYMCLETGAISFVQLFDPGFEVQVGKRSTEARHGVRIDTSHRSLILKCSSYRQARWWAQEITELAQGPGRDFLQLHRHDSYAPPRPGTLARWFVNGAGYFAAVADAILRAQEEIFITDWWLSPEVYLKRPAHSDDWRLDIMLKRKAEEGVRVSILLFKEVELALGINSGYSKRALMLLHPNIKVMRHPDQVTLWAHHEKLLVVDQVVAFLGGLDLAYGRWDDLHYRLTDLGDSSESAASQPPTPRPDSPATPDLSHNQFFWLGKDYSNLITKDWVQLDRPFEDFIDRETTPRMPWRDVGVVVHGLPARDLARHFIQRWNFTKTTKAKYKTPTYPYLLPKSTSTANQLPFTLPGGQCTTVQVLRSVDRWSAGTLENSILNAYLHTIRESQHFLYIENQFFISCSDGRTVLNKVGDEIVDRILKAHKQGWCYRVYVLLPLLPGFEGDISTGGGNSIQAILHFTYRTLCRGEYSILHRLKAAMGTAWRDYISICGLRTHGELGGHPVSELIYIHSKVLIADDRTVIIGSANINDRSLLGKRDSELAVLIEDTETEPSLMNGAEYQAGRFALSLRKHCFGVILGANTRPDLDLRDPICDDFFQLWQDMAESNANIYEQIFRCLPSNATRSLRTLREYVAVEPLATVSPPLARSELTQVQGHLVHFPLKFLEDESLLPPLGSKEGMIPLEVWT
Glyceraldehyde-3-phosphate dehydrogenase, sequence (P04406 whole entry): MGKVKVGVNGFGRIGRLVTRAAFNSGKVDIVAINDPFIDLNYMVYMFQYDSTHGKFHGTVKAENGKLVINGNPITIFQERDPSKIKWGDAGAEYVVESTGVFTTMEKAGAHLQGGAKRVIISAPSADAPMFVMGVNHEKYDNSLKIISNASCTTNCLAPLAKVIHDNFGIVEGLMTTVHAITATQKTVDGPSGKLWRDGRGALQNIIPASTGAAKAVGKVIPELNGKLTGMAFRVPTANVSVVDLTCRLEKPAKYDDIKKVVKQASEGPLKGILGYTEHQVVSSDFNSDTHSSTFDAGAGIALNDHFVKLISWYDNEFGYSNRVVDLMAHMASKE
Paired box protein Pax-8, sequence (Q06710 whole entry): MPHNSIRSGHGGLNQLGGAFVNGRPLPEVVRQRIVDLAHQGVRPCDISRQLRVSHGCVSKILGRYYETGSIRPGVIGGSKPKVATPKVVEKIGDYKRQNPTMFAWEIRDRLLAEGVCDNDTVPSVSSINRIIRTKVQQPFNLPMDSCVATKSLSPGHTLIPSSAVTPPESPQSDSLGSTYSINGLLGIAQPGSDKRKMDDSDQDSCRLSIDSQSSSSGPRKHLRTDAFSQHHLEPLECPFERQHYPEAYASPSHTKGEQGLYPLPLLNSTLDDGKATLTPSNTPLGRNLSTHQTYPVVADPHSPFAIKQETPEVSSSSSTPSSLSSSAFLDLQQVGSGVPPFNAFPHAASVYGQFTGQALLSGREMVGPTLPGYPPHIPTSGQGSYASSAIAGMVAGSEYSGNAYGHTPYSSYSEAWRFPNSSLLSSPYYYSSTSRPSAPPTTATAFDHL
Mitogen-activated protein kinase 10, sequence (P53779 whole entry): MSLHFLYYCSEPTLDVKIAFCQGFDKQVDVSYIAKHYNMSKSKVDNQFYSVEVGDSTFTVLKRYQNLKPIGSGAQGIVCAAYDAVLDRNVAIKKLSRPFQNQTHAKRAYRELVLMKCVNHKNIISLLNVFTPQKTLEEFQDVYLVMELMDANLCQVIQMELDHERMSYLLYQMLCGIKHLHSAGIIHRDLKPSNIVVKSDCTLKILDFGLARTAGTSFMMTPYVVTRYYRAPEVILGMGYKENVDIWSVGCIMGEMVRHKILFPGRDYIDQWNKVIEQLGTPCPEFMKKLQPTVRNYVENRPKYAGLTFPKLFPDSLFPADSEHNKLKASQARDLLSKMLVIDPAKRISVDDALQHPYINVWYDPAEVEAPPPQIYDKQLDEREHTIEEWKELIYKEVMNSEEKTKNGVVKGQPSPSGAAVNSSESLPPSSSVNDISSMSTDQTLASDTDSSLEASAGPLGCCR
E3 ubiquitin-protein ligase Mdm2, sequence (Q00987 whole entry): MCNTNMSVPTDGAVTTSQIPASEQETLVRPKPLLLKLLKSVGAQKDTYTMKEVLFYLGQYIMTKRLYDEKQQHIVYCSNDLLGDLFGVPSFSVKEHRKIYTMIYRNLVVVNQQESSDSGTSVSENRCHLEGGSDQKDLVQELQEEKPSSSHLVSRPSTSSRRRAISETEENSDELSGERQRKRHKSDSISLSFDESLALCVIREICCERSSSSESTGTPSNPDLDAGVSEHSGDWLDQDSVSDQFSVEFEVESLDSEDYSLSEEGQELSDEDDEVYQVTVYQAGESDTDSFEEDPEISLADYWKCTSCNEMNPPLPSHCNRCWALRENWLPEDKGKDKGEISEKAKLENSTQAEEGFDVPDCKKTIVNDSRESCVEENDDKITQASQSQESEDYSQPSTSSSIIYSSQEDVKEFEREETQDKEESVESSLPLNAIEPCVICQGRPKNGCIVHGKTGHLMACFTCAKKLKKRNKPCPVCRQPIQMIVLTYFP

With `O=C(C1CCOCC1)N1C[C@@H]2[C@H](c3ccccc31)[C@H](CO)N2C(=O)Cc1ccccn1`, in [1], the AC50 was 22.9 µM (active).
Turning to `O=C(c1ccccc1F)N1CC(=O)N2[C@H](CO)[C@H](c3ccc(-c4cccnc4)cc3)[C@H]2C1`, the AC50 is 0.148 µM (active) in [2]; 0.129 µM (active) in assay [3]; < 0.3 µM (active) in assay [4]; 0.197 µM (active) in assay [5]; 0.427 µM (active) in [6].
With `Cc1nnc(SCCN2CCOCC2)c2nn(-c3ccccc3F)c(C)c12`, the EC50 in assay [7] is given as > 112 µM (not active); in assay [8], 2.43 µM (not active); in [9], > 112 µM (not active).
Regarding `Cc1cccc(N2CCN(C3=C(Cl)C(=O)N(c4ccc(Cl)c(Cl)c4)C3=O)CC2)c1C`, the IC50 (in [10]; on Bcl-2-related protein A1 [11]; on Bcl-2-related protein A1 [12]) was > 100 µM (not active) in each case.
Consider `O=C(Nc1ccc(F)cc1)c1cccs1`, for which the IC50 in [13] is > 30 µM (not active).
For `CC(=O)NC1(c2ccccc2)CCN(c2cc(C)nc(-c3ccccc3)n2)CC1`, in assay [14], the IC50 was > 67.5 µM (inactive). In addition, the EC50 in assay [15] is > 67.5 µM (inactive).
In the case of `O=C(NCCN1CCC2(CC1)C(=O)NCN2Cc1ccccc1Br)c1ccc2ccccc2c1`, the results for the IC50 at Phospholipase D2 and at Phospholipase D1 were 0.16 µM (active) and 1.68 µM (active), respectively.
In the case of `COc1cccc(NC(=O)C(=O)N/N=C(\C)CC(=O)Nc2ccc(NC(C)=O)cc2)c1`, the EC50 with H4 was 25.6 µM (active); in assay [16], > 12 µM (not active); in [17], 9.31 µM (active); in assay [18] it was > 12 µM (not active); in assay [19], < 0.1 µM (active); in [20] it was 1.25 µM (active).
On to `CCC(=O)Nc1cc(OC)c(NC(=O)c2ccccc2)cc1OC`, for which the EC50 in assay [21] was 1.85 µM (active).
Take `COc1ccc(/C=N/NC(=O)c2[nH]c3ccc(Br)cc3c2-c2ccccc2)cc1`: the IC50 in [22] was 0.296 µM (active); in assay [26], > 80 µM (inactive). Also, the EC50 was 0.361 µM (active) in [23], 0.0886 µM (active) in the assay with BJ [24], < 0.12 µM (inconclusive) with BJ [25] and 34.8 µM (inconclusive) in the assay on BJ [27]. In addition, the AC50 at Paired box protein Pax-8 was < 0.5 µM (active).
Consider `C/C(NC1CCCC1)=C(/C#N)C(N)=O`, for which the IC50 in assay [28] was 33.3 µM (not active).
As to `O=C1Nc2ccc(Cl)cc2[C@@](C#CC2CC2)(C(F)(F)F)O1` [EFAVIRENZ], the IC50 is 21.2 µM (inactive) in assay [29], 3.87 µM (active) in assay [30] and 2.48 µM (active) in [32]. The AC50 in assay [31] is 6.38 µM (active).

In general, AC50 refers to the midpoint of the concentration-response curve, whichever way the signal moves. What is called IC50 is the concentration that inhibits the measured activity by half.
